Experimental data published in PMC12136037, “Type II kinase inhibitors that target Parkinson’s disease–associated LRRK2” (Science Advances, 2025).

Experiments:
Assay in all cases: DSF 100 kinase selectivity screen;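 note: compound tested at 20 µM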
Assay type in all cases: binding
[1] = biological target: T1, ~100 representative kinases (Homo sapiens, UniProt Q96L34); details: protein MARK4; average of three replicates
T1 construct: Recombinant protein kinase domains with a concentration of 2 μM
T1 sequence (Q96L34 1-752): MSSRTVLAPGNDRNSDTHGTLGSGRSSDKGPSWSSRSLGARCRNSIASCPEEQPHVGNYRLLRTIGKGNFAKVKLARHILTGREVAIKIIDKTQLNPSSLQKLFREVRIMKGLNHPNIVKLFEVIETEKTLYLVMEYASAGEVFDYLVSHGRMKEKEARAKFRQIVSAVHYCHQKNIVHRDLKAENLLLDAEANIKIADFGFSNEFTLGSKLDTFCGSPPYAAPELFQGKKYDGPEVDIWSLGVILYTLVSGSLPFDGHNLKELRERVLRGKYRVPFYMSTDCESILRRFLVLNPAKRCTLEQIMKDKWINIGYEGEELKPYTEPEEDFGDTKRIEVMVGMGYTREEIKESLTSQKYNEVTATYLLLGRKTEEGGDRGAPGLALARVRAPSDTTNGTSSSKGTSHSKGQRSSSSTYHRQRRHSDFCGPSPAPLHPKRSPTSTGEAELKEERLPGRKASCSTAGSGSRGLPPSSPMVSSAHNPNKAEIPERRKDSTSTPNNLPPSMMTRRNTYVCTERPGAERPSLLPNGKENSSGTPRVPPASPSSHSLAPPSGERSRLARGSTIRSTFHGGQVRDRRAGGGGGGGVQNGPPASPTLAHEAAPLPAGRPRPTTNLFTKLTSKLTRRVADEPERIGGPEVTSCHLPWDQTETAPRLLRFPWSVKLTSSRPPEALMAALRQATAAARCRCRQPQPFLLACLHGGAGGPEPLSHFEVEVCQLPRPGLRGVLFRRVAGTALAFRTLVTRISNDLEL
Method in brief: (§1)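 Each kinase domain, at 2 μM, is mixed with 20 μM test compound and SYPRO Orange in Hepes (20 mM, pH 7.5) with 500 mM NaCl. Temperature is then raised at 3°C/min and fluorescence-monitored unfolding yields the melting temperature change, ΔTm in degrees Celsius.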

[2] = biological target: T2, ~100 representative kinases (Homo sapiens, UniProt Q96RR4); details: Protein CAMKK2; average of three replicates
T2 construct: Recombinant protein kinase domains with a concentration of 2 μM
T2 sequence (Q96RR4 whole entry, the tested form may be a part): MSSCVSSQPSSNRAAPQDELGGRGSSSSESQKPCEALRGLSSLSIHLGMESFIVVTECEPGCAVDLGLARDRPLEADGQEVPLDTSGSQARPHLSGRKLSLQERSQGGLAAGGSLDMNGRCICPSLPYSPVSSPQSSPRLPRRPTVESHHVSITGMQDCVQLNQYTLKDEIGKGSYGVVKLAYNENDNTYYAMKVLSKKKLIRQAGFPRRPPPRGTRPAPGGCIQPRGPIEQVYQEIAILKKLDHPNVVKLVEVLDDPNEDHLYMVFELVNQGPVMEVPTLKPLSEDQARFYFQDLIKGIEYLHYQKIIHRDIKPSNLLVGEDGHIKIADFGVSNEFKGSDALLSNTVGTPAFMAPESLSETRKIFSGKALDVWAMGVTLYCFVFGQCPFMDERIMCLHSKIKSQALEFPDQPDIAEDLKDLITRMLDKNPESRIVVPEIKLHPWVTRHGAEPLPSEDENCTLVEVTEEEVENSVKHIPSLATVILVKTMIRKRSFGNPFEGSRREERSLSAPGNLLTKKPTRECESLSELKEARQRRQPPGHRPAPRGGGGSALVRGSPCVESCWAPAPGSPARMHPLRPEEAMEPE
Method in brief: as §1

[3] = biological target: T3, ~100 representative kinases (Homo sapiens, UniProt Q9Y6E0); details: protein MST3; average of three replicates
T3 construct: Recombinant protein kinase domains with a concentration of 2 μM
T3 sequence (Q9Y6E0 whole entry, the tested form may be a part): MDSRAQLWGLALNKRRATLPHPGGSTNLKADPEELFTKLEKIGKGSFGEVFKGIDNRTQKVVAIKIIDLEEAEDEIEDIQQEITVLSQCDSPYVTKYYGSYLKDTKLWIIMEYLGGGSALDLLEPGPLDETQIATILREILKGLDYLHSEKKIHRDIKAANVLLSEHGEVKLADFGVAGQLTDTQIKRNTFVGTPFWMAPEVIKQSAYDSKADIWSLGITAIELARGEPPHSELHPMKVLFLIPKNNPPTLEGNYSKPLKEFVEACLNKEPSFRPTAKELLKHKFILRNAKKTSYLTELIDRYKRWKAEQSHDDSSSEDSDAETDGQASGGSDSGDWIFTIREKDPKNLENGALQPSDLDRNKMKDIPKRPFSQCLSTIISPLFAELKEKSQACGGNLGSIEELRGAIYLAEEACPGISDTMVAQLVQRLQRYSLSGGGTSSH
Method in brief: as §1

[4] = biological target: T4, ~100 representative kinases (Homo sapiens, UniProt O75582); details: Protein RPS6KA5; DSF; average of three replicates
T4 construct: Recombinant protein kinase domains with a concentration of 2 μM
T4 sequence (O75582 whole entry, the tested form may be a part): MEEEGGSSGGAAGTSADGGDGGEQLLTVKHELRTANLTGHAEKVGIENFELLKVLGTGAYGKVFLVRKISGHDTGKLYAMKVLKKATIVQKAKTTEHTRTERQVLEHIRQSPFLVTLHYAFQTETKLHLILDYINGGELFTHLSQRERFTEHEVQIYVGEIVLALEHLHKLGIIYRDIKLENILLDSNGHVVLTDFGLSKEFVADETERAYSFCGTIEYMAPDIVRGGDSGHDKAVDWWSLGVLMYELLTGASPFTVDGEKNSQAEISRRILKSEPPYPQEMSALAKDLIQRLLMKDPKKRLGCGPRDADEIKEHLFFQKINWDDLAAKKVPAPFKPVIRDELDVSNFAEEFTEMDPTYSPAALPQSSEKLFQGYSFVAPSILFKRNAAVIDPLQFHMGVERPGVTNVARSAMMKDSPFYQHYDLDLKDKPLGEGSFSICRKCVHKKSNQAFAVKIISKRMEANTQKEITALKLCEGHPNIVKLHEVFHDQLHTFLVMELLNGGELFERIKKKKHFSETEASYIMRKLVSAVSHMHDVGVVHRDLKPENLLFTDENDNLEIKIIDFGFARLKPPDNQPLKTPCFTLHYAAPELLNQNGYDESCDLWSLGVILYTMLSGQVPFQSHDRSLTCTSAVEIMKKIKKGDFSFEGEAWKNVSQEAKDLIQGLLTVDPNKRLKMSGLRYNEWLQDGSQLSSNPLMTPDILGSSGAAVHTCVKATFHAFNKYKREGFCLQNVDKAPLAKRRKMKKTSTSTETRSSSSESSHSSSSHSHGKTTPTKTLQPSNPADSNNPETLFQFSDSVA
Method in brief: as §1

[5] = biological target: T5, ~100 representative kinases (Homo sapiens, UniProt Q15418); details: Protein RPS6KA1; DSF; average of three replicates
T5 construct: Recombinant protein kinase domains with a concentration of 2 μM
T5 sequence (Q15418 whole entry, the tested form may be a part): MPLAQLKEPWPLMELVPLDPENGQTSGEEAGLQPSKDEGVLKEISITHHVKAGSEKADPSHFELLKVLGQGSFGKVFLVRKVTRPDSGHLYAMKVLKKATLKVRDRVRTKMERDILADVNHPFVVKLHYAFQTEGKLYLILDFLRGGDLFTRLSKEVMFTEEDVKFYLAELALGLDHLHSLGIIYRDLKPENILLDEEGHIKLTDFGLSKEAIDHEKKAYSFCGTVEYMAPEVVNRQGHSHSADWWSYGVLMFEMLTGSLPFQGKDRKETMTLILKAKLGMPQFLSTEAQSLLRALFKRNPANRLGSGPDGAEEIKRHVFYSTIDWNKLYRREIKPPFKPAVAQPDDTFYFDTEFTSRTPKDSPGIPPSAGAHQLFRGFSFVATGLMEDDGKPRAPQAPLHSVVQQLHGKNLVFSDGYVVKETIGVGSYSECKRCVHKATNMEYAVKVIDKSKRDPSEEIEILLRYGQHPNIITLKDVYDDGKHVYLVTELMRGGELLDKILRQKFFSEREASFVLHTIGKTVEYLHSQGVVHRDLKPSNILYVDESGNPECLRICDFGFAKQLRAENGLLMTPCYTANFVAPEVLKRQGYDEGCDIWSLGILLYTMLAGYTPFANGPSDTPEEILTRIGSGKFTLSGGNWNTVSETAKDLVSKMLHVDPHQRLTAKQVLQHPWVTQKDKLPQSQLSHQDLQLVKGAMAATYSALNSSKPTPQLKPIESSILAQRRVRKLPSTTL
Method in brief: as §1

[6] = biological target: T6, ~100 representative kinases (Homo sapiens, UniProt P21802); details: protein FGFR2; average of three replicates
T6 construct: Recombinant protein kinase domains with a concentration of 2 μM
Method in brief: as §1

[7] = biological target: T7, ~100 representative kinases (Homo sapiens, UniProt O14965); details: Protein STK6; DSF; average of three replicates
T7 construct: Recombinant protein kinase domains with a concentration of 2 μM
T7 sequence (O14965 1-403): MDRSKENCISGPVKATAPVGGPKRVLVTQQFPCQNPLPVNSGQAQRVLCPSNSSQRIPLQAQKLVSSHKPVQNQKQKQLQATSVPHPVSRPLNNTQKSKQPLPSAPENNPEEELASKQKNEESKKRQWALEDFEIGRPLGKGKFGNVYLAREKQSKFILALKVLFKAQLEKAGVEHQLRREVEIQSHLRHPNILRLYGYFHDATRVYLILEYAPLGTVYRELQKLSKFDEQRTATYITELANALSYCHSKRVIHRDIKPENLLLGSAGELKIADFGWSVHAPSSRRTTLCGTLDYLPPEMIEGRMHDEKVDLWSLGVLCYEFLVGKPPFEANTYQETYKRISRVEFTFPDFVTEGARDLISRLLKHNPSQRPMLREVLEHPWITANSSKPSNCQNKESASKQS
Method in brief: as §1

[8] = biological target: T8, ~100 representative kinases (Homo sapiens, UniProt P21675); details: Protein TAF1; DSF; average of three replicates
T8 construct: Recombinant protein kinase domains with a concentration of 2 μM
T8 sequence (P21675 whole entry, the tested form may be a part): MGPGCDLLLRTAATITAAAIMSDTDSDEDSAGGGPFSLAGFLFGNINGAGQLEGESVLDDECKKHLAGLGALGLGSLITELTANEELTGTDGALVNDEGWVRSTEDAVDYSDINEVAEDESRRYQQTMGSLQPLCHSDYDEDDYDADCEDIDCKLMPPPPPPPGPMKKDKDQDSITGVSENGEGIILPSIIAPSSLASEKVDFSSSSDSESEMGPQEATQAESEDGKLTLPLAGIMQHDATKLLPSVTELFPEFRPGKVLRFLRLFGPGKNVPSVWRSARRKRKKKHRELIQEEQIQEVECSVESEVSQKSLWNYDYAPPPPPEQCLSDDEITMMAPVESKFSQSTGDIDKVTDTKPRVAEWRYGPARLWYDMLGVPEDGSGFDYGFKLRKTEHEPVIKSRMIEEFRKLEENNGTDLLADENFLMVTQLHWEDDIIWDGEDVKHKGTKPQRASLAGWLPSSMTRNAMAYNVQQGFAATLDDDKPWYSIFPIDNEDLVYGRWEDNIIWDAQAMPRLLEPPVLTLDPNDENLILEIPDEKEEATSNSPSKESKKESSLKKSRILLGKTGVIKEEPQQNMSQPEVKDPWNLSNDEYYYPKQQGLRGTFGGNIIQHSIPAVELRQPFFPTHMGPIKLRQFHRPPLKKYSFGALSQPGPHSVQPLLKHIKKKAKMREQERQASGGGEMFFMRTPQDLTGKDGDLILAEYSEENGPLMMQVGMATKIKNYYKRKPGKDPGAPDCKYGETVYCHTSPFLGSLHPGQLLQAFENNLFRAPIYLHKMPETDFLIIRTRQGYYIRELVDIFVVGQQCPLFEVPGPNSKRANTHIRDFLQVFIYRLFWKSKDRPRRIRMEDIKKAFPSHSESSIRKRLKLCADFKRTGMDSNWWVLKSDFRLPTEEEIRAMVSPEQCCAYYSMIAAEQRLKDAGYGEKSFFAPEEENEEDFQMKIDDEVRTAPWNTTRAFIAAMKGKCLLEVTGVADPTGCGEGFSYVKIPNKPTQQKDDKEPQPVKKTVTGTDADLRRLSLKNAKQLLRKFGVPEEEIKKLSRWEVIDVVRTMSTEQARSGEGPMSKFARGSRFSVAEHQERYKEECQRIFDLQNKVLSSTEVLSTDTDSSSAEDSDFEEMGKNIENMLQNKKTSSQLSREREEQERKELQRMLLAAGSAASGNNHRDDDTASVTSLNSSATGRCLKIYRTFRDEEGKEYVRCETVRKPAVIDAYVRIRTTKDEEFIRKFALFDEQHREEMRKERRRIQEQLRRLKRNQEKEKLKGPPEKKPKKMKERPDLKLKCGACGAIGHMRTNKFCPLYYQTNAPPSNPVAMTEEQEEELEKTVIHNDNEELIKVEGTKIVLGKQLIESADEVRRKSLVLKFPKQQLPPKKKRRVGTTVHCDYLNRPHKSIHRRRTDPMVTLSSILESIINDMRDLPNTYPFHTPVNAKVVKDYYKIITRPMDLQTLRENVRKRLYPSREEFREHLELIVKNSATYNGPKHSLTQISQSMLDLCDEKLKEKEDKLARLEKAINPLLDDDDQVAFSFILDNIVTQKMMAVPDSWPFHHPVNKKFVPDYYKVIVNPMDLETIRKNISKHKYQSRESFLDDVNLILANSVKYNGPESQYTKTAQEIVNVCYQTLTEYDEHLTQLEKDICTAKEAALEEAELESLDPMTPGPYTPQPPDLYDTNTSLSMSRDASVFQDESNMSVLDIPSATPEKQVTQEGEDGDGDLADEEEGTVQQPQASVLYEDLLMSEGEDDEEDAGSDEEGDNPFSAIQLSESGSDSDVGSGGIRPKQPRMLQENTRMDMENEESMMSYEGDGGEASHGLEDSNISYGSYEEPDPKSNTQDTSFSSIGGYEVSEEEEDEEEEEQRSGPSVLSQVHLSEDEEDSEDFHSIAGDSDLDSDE
Method in brief: as §1

[9] = biological target: T9, ~100 representative kinases (Homo sapiens, UniProt Q86V86); details: protein PIM3; average of three replicates
T9 construct: Recombinant protein kinase domains with a concentration of 2 μM
Method in brief: as §1

[10] = biological target: T10, ~100 representative kinases (Homo sapiens, UniProt P51955); details: protein NEK2; average of three replicates
T10 construct: Recombinant protein kinase domains with a concentration of 2 μM
T10 sequence (P51955 1-445): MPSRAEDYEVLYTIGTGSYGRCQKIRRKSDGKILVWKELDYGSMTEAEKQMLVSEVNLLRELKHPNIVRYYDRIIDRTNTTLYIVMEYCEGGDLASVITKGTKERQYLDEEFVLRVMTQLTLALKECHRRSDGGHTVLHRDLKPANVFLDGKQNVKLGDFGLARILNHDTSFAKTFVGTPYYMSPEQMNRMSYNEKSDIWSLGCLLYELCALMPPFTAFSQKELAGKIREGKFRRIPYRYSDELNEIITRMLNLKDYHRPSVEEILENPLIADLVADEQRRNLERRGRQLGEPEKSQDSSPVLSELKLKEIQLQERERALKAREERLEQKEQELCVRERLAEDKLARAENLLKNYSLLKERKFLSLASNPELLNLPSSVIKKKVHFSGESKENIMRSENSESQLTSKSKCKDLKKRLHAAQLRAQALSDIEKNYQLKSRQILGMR
Method in brief: as §1

Compound | dTm [1] | dTm [2] | dTm [3] | dTm [4] | dTm [5] | dTm [6] | dTm [7] | dTm [8] | dTm [9] | dTm [10]
COc1ccc(NC(=O)C2(C(=O)Nc3cccc(-c4c[nH]c5ncnc(N6CCOCC6)c45)c3)CC2)cc1 [Compound 16] | 2.27 K | 1.74 K | 1.58 K | 0.21 K | -0.37 K | 1.54 K | 5.48 K | 0.37 K | 0.23 K | 2.18 K
COc1cc(NC(=O)C2(C(=O)Nc3cccc(-c4c[nH]c5ncnc(N6CCOCC6)c45)c3)CC2)ccc1F [Compound 21] | 4.12 K | 8.27 K | 6.57 K | 4.31 K | 0.11 K | 2.99 K | 6.06 K | 0.37 K | -0.0363 K | 1.38 K
C[C@@H]1CN(c2cc(-c3n[nH]c4ccc(OC5(C)CC5)cc34)ncn2)C[C@H](C)O1 [MLi2] | -0.55 K | 8.80 K | 0.43 K | -1.02 K | 2.98 K | -0.06 K | 0.17 K | -0.34 K | 0.23 K | -0.21 K
O=C(Nc1cccc(-c2c[nH]c3ncnc(N4CCOCC4)c23)c1)C1(C(=O)Nc2ccc(F)c(F)c2)CC1 [Compound 17] | 3.95 K | 6.90 K | 6.82 K | 6.14 K | 0.38 K | 2.62 K | 7.27 K | 0.99 K | 1.09 K | 2.00 K
CC(C)(C)c1cc(NC(=O)Nc2cccc(-c3c[nH]c4ncnc(N5CCOCC5)c34)c2)n(-c2ccc3ncccc3c2)n1 [Compound 28] | 4.38 K | 12.27 K | 9.37 K | 16.84 K | 0.32 K | 10.62 K | 4.51 K | 1.17 K | 4.96 K | 2.21 K
